Laboratory results from patent US20110171279A1, “POLYETHYLENIMINE BIOCIDES” (NDSU RESEARCH FOUNDATION, priority 2009, published 2011).
Values after ≈ are worked out from the molar mass of the structure shown. Like-named read-outs stand apart in the source and are kept apart here.

Columns and labels:
Assay type in all cases: cell-based
Escherichia coli = assay: Growth reduction / MIC test against Escherichia coli in Luria-Bertani broth, absorbance 600 nm; conditions: for MIC: Escherichia coli, read-out: E. Coli MIC; for Percent reduction in growth of Escherichia coli: Table 3
Protocol: (§1) The antimicrobial properties of the Formulations were determined by measuring the minimum inhibitory concentration (MIC) or by using an adaptation of the MIC test. […] Additional details of the MIC method can be found at Andrews, J. M., Journal of Antimicrobial Chemotherapy (2001) 48, 5-16, incorporated herein by reference in its entirety.
(§2) In accordance with the MIC test, working solutions for each Formulation were prepared by dissolving 100 mg of each Formulation in 10 mL of methanol (Sigma-Aldrich) to generate a 10 mg/mL solution. Next, 10 ml of Luria-Bertani broth was spiked with 200 μL of the mg/mL Formulation solution to achieve a final concentration of 0.2 mg/mL.
(§3) 0.2 mL of each concentration of each Formulation (spiked with E. coli) was added in triplicate to a 96-well plate. Additionally, 0.2 mL of Luria-Bertani broth without any E. coli or Formulation and 0.2 mL of Luria-Bertani broth with E. coli, but no Formulations, served as negative and positive growth controls, respectively. Plates were then placed in an incubator, at 37° C. for 24 hrs (with shaking), and then measured for growth by taking absorbance measurements at 600 nm with a multi-well plate spectrophotometer (Synergy HT). The efficacy of each Formulation was measured by determining the percent reduction in bacterial growth as a function of Formulation concentration.
Next, the antimicrobial activity of Formulations 69-77 and Reference 1 toward E. coli was measured by determining the percent reduction in bacterial growth as a function of concentration. The results for the examples were compared to various PEIs used to produce the examples.

[1] = tested on: Staphylococcus epidermidis; assay: Growth reduction / MIC test against Staphylococcus epidermidis in tryptic soy broth, absorbance 600 nm; conditions: for Percent reduction in growth of Staphylococcus epidermidis: Table 2; for MIC: Staphylococcus epidermidis, read-out: S. epidermidis MIC
Protocol: as §1
as §2, with “tryptic soy” for “Luria-Bertani”
as §3, with “S. epidermidis)” for “E. coli)”, “tryptic soy” for “Luria-Bertani”, “S. epidermidis” for “E. coli”, “S. epidermidis,” for “E. coli,”, “HT microplate reader, BioTek Instruments, Winooski, Vt.).” for “HT).”
For comparison purposes a benzylpiperidino biocide (“Reference 1”) was prepared using ETCS and synthetic methods similar to those described in U.S. Pat. No. 5,036,077, issued Jul. 30, 1991, and incorporated by reference in its entirety. To make Reference 1, 3.9 g of ETCS and 2 g of 4-benzylpiperidine were reacted in 30 mL of methanol. The mixture was heated at 65° C. for 48 hours. Reaction completion was confirmed by ^1H NMR, ^13C NMR, HMQC (2D) NMR and elemental analysis. The antimicrobial activity of Formulations 69-77 and Reference 1 toward S. epidermidis was measured by determining the percent reduction in bacterial growth as a function of concentration, as was done above in EXAMPLE 3.

Cobetia marina = assay: MIC test against Cobetia marina
Protocol: as §1
The antimicrobial activity of Formulations 10-12, also derived from ETCS and PEI, was determined toward a suite of marine microorganisms, namely, Pseudoalteromonas atlantica, Cellulophaga lytica, Cobetia marina, and Halomonas pacifica. The antimicrobial activity of Formulations 10-12 was determined toward these marine microorganisms according to the methods of EXAMPLES 5-7. The MIC for each Formulation against each strain is compared to that of the PEI, ETCS, and TCS (alone) in Table 7.

Navicula incerta = assay: Growth reduction / MIC test against Navicula incerta in Guillard's F/2 medium, chlorophyll fluorescence; conditions: for Percent reduction in growth of Navicula incerta: Table 4
Protocol: as §1
as §2, with “ml of Guillard's F/2 medium was spiked” for “ml of Luria-Bertani broth was spiked”, “of the 10 mg/mL Formulation” for “of the mg/mL Formulation”
0.2 mL of each concentration of each Formulation (spiked with N. incerta) was added in triplicate to a 96-well plate. Additionally, 0.2 mL of Guillard's F/2 medium without any N. incerta or Formulation and 0.2 mL of Guillard's F/2 medium with N. incerta, but no Formulations, served as negative and positive growth controls, respectively. The 96-well plates were placed in an illuminated growth cabinet with a 16:8 light:dark cycle (photon flux density 33 μmol m^−2 s^−1) for 48 hrs at 18° C. and measured for chlorophyll fluorescence using a multi-well plate spectrophotometer (excitation: 360 nm; emission: 670 nm). The efficacy of each Formulation was measured by determining the percent reduction in diatom growth as a function of Formulation concentration.

[2] = Formulation Concentration 0.78125 μg/mL
[3] = Formulation Concentration 1.5625 μg/mL
[4] = Formulation Concentration 3.125 μg/mL
[5] = Formulation Concentration 6.25 μg/mL
[6] = Formulation Concentration 12.5 μg/mL
[7] = Formulation Concentration 25 μg/mL
[8] = Formulation Concentration 50 μg/mL
[9] = Formulation Concentration 100 μg/mL

| SMILES | Percent reduction in growth of Escherichia coli (Escherichia coli; [2]) [%] | Percent reduction in growth of Escherichia coli (Escherichia coli; [3]) [%] | Percent reduction in growth of Escherichia coli (Escherichia coli; [4]) [%] | Percent reduction in growth of Escherichia coli (Escherichia coli; [5]) [%] | Percent reduction in growth of Escherichia coli (Escherichia coli; [6]) [%] | Percent reduction in growth of Escherichia coli (Escherichia coli; [7]) [%] | Percent reduction in growth of Escherichia coli (Escherichia coli; [8]) [%] | Percent reduction in growth of Escherichia coli (Escherichia coli; [9]) [%] | Percent reduction in growth of Staphylococcus epidermidis [1, 2] [%] | Percent reduction in growth of Staphylococcus epidermidis [1, 3] [%] | Percent reduction in growth of Staphylococcus epidermidis [1, 4] [%] | Percent reduction in growth of Staphylococcus epidermidis [1, 5] [%] | Percent reduction in growth of Staphylococcus epidermidis [1, 6] [%] | Percent reduction in growth of Staphylococcus epidermidis [1, 7] [%] | Percent reduction in growth of Staphylococcus epidermidis [1, 8] [%] | Percent reduction in growth of Staphylococcus epidermidis [1, 9] [%] | Percent reduction in growth of Navicula incerta (Navicula incerta; [2]) [%] | Percent reduction in growth of Navicula incerta (Navicula incerta; [3]) [%] | Percent reduction in growth of Navicula incerta (Navicula incerta; [4]) [%] | Percent reduction in growth of Navicula incerta (Navicula incerta; [5]) [%] | other results |
| --- | --- | --- | --- | --- | --- | --- | --- | --- | --- | --- | --- | --- | --- | --- | --- | --- | --- | --- | --- | --- | --- |
| Oc1cc(Cl)ccc1Oc1ccc(Cl)cc1Cl [TCS, triclosan] | 14.66 | 52.34 | 93.43 | 93.93 | 93.43 | 93.93 | 93.93 | 93.93 | 81.36 | 86.70 | 92.70 | 92.96 | 93.09 | 92.83 | 93.09 | 93.35 | 14.26 | 22.00 | 84.51 | 91.29 | MIC (Escherichia coli): 0.781 µg/mL; MIC [1]: 0.781 µg/mL; MIC (Cobetia marina; read-out: C. marina MIC): > 100 µg/mL; Percent reduction in growth of Navicula incerta (Navicula incerta; [6]): 94.57%; Percent reduction in growth of Navicula incerta (Navicula incerta; [7]): 93.55%; Percent reduction in growth of Navicula incerta (Navicula incerta; [8]): 94.21%; Percent reduction in growth of Navicula incerta (Navicula incerta; [9]): 94.95%; MIC (Navicula incerta; read-out: N. incerta MIC): 3.12 µg/mL (≈ 10.8 µM) |
| Clc1ccc(Oc2ccc(Cl)cc2OCC2CO2)c(Cl)c1 (stereo not shown) [ETCS, 2-((5-chloro-2-(2,4-dichlorophenoxy)phenoxy)methyl)oxirane] | 0.00 | 0.00 | 0.00 | 0.00 | 0.00 | 0.00 | 0.00 | 0.26 | 0.00 | 9.43 | 8.30 | 16.36 | 18.64 | 17.39 | 22.16 | 9.55 | 0.00 | 0.00 | 0.00 | 0.00 | MIC (Escherichia coli; Table 12): > 100 µg/mL; MIC ([1]; Table 12): > 100 µg/mL; MIC (Cobetia marina; Table 7, read-out: C. marina MIC): > 100 µg/mL; Percent reduction in growth of Navicula incerta (Navicula incerta; [6]): 34.14%; Percent reduction in growth of Navicula incerta (Navicula incerta; [7]): 89.92%; Percent reduction in growth of Navicula incerta (Navicula incerta; [8]): 91.40%; Percent reduction in growth of Navicula incerta (Navicula incerta; [9]): 93.37% |
